Experimental data from patent US20090131508A1, “Use of 2-Oxo-1-Pyrrolidone Derivatives for the Preparation of a Drug” (UCB PHARMA, S.A., priority 2005, published 2009).
“Also recorded” adds a separate entry of the source. Like-named read-outs stand apart in the source and are kept apart here.

How the values were obtained:
epilepsy = conditions: A. J. Gower et al., Eur. J. Pharmacol., 222, (1992), 193-203; cited from earlier work
[1] = tested on: post-hypoxic myoclonus (auditory stimulus-induced myoclonic jerks); assay: rat cardiac arrest model of post-hypoxic myoclonus; format: in vivo, male Sprague-Dawley rats; conditions: ip at 10, 30, 100 and 300 mg/kg, 48 hours after cardiac arrest; myoclonus score over 3 hours
Description: Brivaracetam is evaluated in a rat model of post-hypoxic myoclonus [Truong et al. (1994) Novel rat cardiac arrest model of post-hypoxic myoclonus. Mov. Disord. 9:201-206]. In this model, male Sprague-Dawley rats are subjected to mechanical-induced cardiac arrest for a short duration of time during which cerebral hypoxic insults are induced.
All surgical procedures are performed under deep anaesthesia (ketamine 85 mg/kg ip and xylazine 15 mg/kg ip). The cardiac arrest is initiated and maintained for a duration of 8 minutes by mechanically obstructing all the major cardiac blood vessels including the aorta by hooking up the vessels with an L-shaped loop inserted into the rat body cavity. […]
These animals show jerking movements in response to auditory stimuli and other features of myoclonus that are similar to those observed in human condition. […] The involuntary muscle jerks in response to each stimulus are scored as follows: 0=no jerks; 1=ear twitch; 2=ear and body jerk; 3=ear, head and shoulder jerk; 4=whole body jerk; and 5=whole body jerk with jumping.
Antimyoclonic activity of Brivaracetam, administered ip at 10, 30, 100 and 300 mg/kg, is evaluated 48 hours after the cardiac arrest. The myoclonus score is recorded at 30 min interval over a period of 3 hours after dosing, in groups of 6 rats per dose.

audiogenic seizures = audiogenic seizures in sound-sensitive mice; format: in vivo, male genetically sound-sensitive mice; conditions: i.p. -30 min, 95% confidence interval in parentheses
Description: Brivaracetam is tested in male genetically sound-sensitive mice (16-28 g; N=10 per group) responding with wild running, clonic and tonic convulsions to an acoustic stimulation. Audiogenic seizures are induced by an acoustic stimulus (90 dB, 10-20 kHz) applied for 30 s. The mice are pre-treated with either saline or different doses of Brivaracetam (i.p. adm., −30 min.) and the proportion of mice protected against both clonic and tonic convulsions is used as the end point to assess anticonvulsant activity.

[2] = tested on: pentylenetetrazol (PTZ) seizures; assay: pentylenetetrazol (PTZ) seizures in mice; format: in vivo, male NMRI mice; conditions: PTZ 89 mg/kg s.c., i.p. -30 min, 95% confidence interval in parentheses
Description: (§1) The effect of Brivaracetam against maximal electroshock seizures (MES) and pentylenetetrazol (PTZ) seizures is evaluated in male NMRI mice (20-30 g; N=10 per group). MES is induced through corneal electrodes delivering a current of 50 mA for a duration 0.2 s inducing tonic hind limb extension in 100% of saline-treated animals.
(§2) PTZ is administered at a dose of 89 mg/kg s.c. which represents a dose inducing clonic convulsions of all four extremities in 97% of saline-treated animals. The mice are pre-treated with either saline or different doses of Brivaracetam (i.p. adm., −30 min.) and the proportion of mice protected against seizures is recorded.

DMCM-induced seizures = assay: threshold for DMCM-induced seizures in mice; format: in vivo, male NMRI mice; conditions: for Clonic convulsion DMCM threshold dose / First myoclonic jerks DMCM threshold dose: mean ± S.D.
Description: The effect of Brivaracetam on the threshold for DMCM-induced seizures is evaluated in male NMRI mice (25-35 g; N=10 per group). The threshold for induction of myoclonic jerks and clonic convulsions in all four extremities is determined by infusing a concentration of 0.5 mg/ml DMCM into the tail vein of unrestrained freely moving mice at a rate of 0.25 ml/min with an infusion pump and a maximum duration of infusion of 2 min. Saline or different doses of Brivaracetam are administered 30 min before DMCM infusion.

[3] = plasma levels of brivaracetam in the PPR study; format: in vivo; conditions: human
Description: (§3) The aim of the placebo-controlled, single blind, multi-centre study is to explore the photoparoxysmal EEG (Electroencephalogram) response (PPR) in photosensitive epileptic subjects after one single oral dose (10, 20, 40 and 80 mg) of brivaracetam (BRV).
(§4) In the study, nineteen Caucasian subjects with photosensitive epilepsy (15 females, 4 males) with stable PPR in at least one eye condition (eyes open, eyes closed, eye closure) are enrolled. During a 3-day period, subjects underwent standardized intermittent photic stimulation (IPS) at different frequencies to define the standard photosensitivity range (SPR) in frequency steps per subject at fixed time points over the day: predose (−0.5 h) and postdose (1, 2, 4, 6, 8, 24, 28, 32, 48, and 72 h). After the placebo baseline day (day 1), single oral doses of BRV are given, starting at 80 mg, with subsequent lowering or increasing of the dose depending on the results per 4 subjects.
Median time to first response is 0.5 hours for all doses, and median duration of response is approximately 28 hours after 10, 20, or 40 mg BRV. The median duration is longer after 80 mg BRV (59.5 h). Time to maximal reduction in SPR is dose related: 1.5, 1.0, 1.0, and 0.5 hours, respectively, for 10, 20, 40, and 80 mg BRV. Plasma levels of brivaracetam (BRV) reach a peak at approximately 2.0 hours. T1/2 is about 8.5 hours. Effect of BRV is still frequently observable with BRV plasma levels below the lower level of quantification.

[4] = tested on: maximal electroshock seizures (MES); assay: maximal electroshock seizures (MES) in mice; format: in vivo, male NMRI mice; conditions: i.p. -30 min, 95% confidence interval in parentheses
Description: as §1, §2

[5] = tested on: photoparoxysmal EEG response (PPR); assay: photoparoxysmal EEG response (PPR) study in photosensitive epileptic subjects; format: in vivo, human (Caucasian subjects with photosensitive epilepsy); conditions: for Duration of response, Median (Range) / Time to first response, Median (Range): eye-closure condition, response = SPR change of at least 3 frequency steps
Description: as §3, §4
A total of 18 subjects are evaluable. One subject appeared to be no longer sensitive on the baseline day and is therefore not evaluable. Under placebo administration almost no SPR changes from pre-dose in “eye-closure” condition are observed. Important SPR changes or even complete abolishment of the photosensitivity windows are observed after BRV administration at all tested doses.
Descriptive statistics (N, Median (range)) for time to first response and duration of response in “eye-closure” condition are given in the Table 3 below. Response is defined as a SPR change of at least 3 frequency steps.

kindled seizures = assay: amygdala kindling in rats; format: in vivo, male Sprague-Dawley rats; conditions: i.p. -60 min, 95% confidence interval in parentheses
Description: The effect of brivaracetam on kindled seizures is evaluated in male Sprague-Dawley rats (250-350 g) implanted with a bipolar stimulation/recording electrode into the right basolateral amygdala [AP-2.3, L-4.8, V-8.5 (Paxinos and Watson, 1982)], under pentobarbital anaesthesia. Kindling is induced by once daily stimulation, 5 days per week, with 500 μA monophasic square wave pulses, 50 Hz for 1 s (Löscher et al., 1986). The animals are considered kindled after the appearance of at least 10 consecutive stage 4 or 5 seizures according to the scale of Racine (Racine, 1972). Fully kindled rats (N=8 per group) are stimulated once with the same stimulation parameters as above after administration of saline (i.p., −60 min).
This procedure is repeated two days later, after pre-treatment with either saline or different doses of Brivaracetam (i.p., −60 min).
The behavioural effect of stimulation is graded according to the scale of Racine and the proportion of rats protected against generalised motor seizures (stage <3) is recorded.

[6] = tested on: spontaneous spike-and-wave discharges (SWDs); assay: spike-and-wave discharges in Genetic Absence Epilepsy Rats from Strasbourg; format: in vivo, male rats from the Genetic Absence Epilepsy Rat Strain; conditions: 95% confidence interval in parentheses
Description: Male rats from the Genetic Absence Epilepsy Rat Strain are implanted with four platinum electrodes into the left and right frontal cortex and left and right occipital cortex, under pentobarbital anaesthesia. Cortical, spontaneous spike-and-wave discharges (SWDs) are recorded bilaterally from the rats placed into Plexiglass boxes, and prevented for falling asleep by gentle sensory stimulation. After a 20-min habituation period, the rats are injected i.p. with either saline or different doses of Brivaracetam and the EEG recorded continuously over consecutive 20-min intervals up to 120 min. The cumulative duration of the SWDs is calculated.

[7] = 80 mg single oral dose, listed as BRV
[8] = all single doses (10, 20, 40, and 80 mg)

For `CC[C@H](C(N)=O)N1CCCC1=O` [(R)-(+)-α-ethyl-2-oxo-1-pyrrolidine-acetamide], the “Activity in the treatment of epilepsy” value (epilepsy) is listed as “completely devoid of activity”.
For `CCC[C@@H]1CC(=O)N([C@@H](CC)C(N)=O)C1` [Brivaracetam, (2S)-2-[(4R)-2-oxo-4-propylpyrrolidinyl]butanamide], the Antimyoclonic activity [1] was “active”, the “Protective effect ED50 value, clonic convulsions” value (audiogenic seizures) was 2.4 (1.4-4.0) mg/kg i.p and the “Protective effect ED50 value, tonic convulsions” value (audiogenic seizures) was 1.4 (0.9-2.1) mg/kg i.p. For the same compound, the “Protective effect ED50 value, clonic convulsions” value [2] was 30 (10-87) mg/kg i.p, the “Clonic convulsion DMCM threshold, change vs control” value (DMCM-induced seizures; Brivaracetam 2.1 mg/kg IP) was “+46%” and the “First myoclonic jerks DMCM threshold, change vs control” value (DMCM-induced seizures; Brivaracetam 2.1 mg/kg IP) was “+6%”. The “Clonic convulsion DMCM threshold dose” value (DMCM-induced seizures; Brivaracetam 2.1 mg/kg IP) was 3.34 ± 0.93 mg/kg, the “First myoclonic jerks DMCM threshold dose” value (DMCM-induced seizures; Brivaracetam 2.1 mg/kg IP) was 1.05 ± 0.14 mg/kg and the “Clonic convulsion DMCM threshold, change vs control” value (DMCM-induced seizures; Brivaracetam 6.8 mg/kg IP) was “+104%”. The “First myoclonic jerks DMCM threshold, change vs control” value (DMCM-induced seizures; Brivaracetam 6.8 mg/kg IP) was “+11%”, the “Clonic convulsion DMCM threshold dose” value (DMCM-induced seizures; Brivaracetam 6.8 mg/kg IP) was 4.68 ± 2.21 mg/kg and the “First myoclonic jerks DMCM threshold dose” value (DMCM-induced seizures; Brivaracetam 6.8 mg/kg IP) was 1.10 ± 0.16 mg/kg. The “Clonic convulsion DMCM threshold, change vs control” value (DMCM-induced seizures; Brivaracetam 21.2 mg/kg IP) was “+183%”, the “First myoclonic jerks DMCM threshold, change vs control” value (DMCM-induced seizures; Brivaracetam 21.2 mg/kg IP) was “+26%” and the “Clonic convulsion DMCM threshold dose” value (DMCM-induced seizures; Brivaracetam 21.2 mg/kg IP) was 6.47 ± 2.82 mg/kg. The “First myoclonic jerks DMCM threshold dose” value (DMCM-induced seizures; Brivaracetam 21.2 mg/kg IP) was 1.25 ± 0.14 mg/kg, the “Clonic convulsion DMCM threshold, change vs control” value (DMCM-induced seizures; Brivaracetam 67.9 mg/kg IP) was “+182%” and the “First myoclonic jerks DMCM threshold, change vs control” value (DMCM-induced seizures; Brivaracetam 67.9 mg/kg IP) was “+32%”. The “Clonic convulsion DMCM threshold dose” value (DMCM-induced seizures; Brivaracetam 67.9 mg/kg IP) was 6.46 ± 3.16 mg/kg, the “First myoclonic jerks DMCM threshold dose” value (DMCM-induced seizures; Brivaracetam 67.9 mg/kg IP) was 1.31 ± 0.17 mg/kg and the “Clonic convulsion DMCM threshold, change vs control” value (DMCM-induced seizures; Brivaracetam 212.3 mg/kg IP) was “+213%”. For the same compound, the “First myoclonic jerks DMCM threshold, change vs control” value (DMCM-induced seizures; Brivaracetam 212.3 mg/kg IP) was “+36%”, the “Clonic convulsion DMCM threshold dose” value (DMCM-induced seizures; Brivaracetam 212.3 mg/kg IP) was 7.16 ± 2.98 mg/kg and the “First myoclonic jerks DMCM threshold dose” value (DMCM-induced seizures; Brivaracetam 212.3 mg/kg IP) was 1.35 ± 0.17 mg/kg. For the same compound, the half-life ([3]; both sexes, plasma, single oral dose, read-out: T1/2 (converted)) was ~8.5 h, the half-life ([3]; in vivo, stated as basis of expected effect duration, read-out: half-life of the compound (converted)) was ~7.7 h and the “Time of peak plasma levels” value ([3]; single oral dose) was “approximately 2.0 hours”. For the same compound, the “Protective effect ED50 value, tonic hind limb extension” value [4] was 113 (89-136) mg/kg i.p, the “Time to maximal reduction in SPR” value ([5]; 10 mg single oral dose) was 1.5 h and the “Duration of response, Median (Range)” value ([5]; 10 mg single oral dose) was 29.3 (7.5; 31.5) h. For the same compound, the “Time to first response, Median (Range)” value ([5]; 10 mg single oral dose) was 0.5 (0.5; 1.0) h, the “Patients with abolishment of EEG response” value ([5]; 10 mg single oral dose, reduction in the fourth patient) was “three out of four” and the “Time to maximal reduction in SPR” value ([5]; 20 mg single oral dose) was 1.0 h. The “Duration of response, Median (Range)” value ([5]; 20 mg single oral dose) was 27.5 (23.0; 31.5) h, the “Time to first response, Median (Range)” value ([5]; 20 mg single oral dose) was 0.5 (0.5; 1.0) h and the “EEG response in all (evaluable) subjects” value ([5]; 20 mg single oral dose, listed as BRV) was “abolished; also recorded: complete suppression”. The “Time to maximal reduction in SPR” value ([5]; 40 mg single oral dose) was 1.0 h, the “Duration of response, Median (Range)” value ([5]; 40 mg single oral dose) was 27.0 (23.5; 47.5) h and the “Time to first response, Median (Range)” value ([5]; 40 mg single oral dose) was 0.5 (0.5; 1.0) h. The “Time to maximal reduction in SPR” value ([5]; 80 mg single oral dose) was 0.5 h, the “Duration of response, Median (Range)” value ([5]; 80 mg single oral dose) was 59.5 (27.5; 71.5) h and the “Time to first response, Median (Range)” value ([5]; 80 mg single oral dose) was 0.5 (0.5; 0.5) h. For the same compound, the “Duration of response, Median (Range)” value [5, 7] was 59.5 h, the “EEG response in all (evaluable) subjects” value [5, 7] was “abolished; also recorded: complete suppression” and the “Median duration of response” value ([5]; after 10, 20, or 40 mg single oral dose) was “approximately 28 hours”. For the same compound, the “Median time to first response” value ([5]; all doses (10, 20, 40, 80 mg single oral dose)) was 0.5 h, the Safety and tolerability ([5]; all doses (10, 20, 40, 80 mg single oral dose), human subjects) was “safe and well tolerated” and the “Subjects with abolished photoparoxysmal EEG response” value [5, 8] was 78%. The “Subjects with reduced photoparoxysmal EEG response” value [5, 8] was 94%, the “Protective effect ED50 value, secondary generalised seizures” value (kindled seizures) was 44 (24-84) mg/kg i.p and the “Protective effect ED50 value, duration of spike-and-wave discharges over 2 hours” value [6] was 2.6 (0.85-8.1) mg/kg i.p.
